Where two headings read alike, the source gives them in different places.
Key:
SD rats [1] = assay: single subcutaneous injection, diuretic effect in rats (metabolic cage); assay type: in vivo; conditions: 100 mg/kg subcutaneous
Experimental: The urine collection system was siliconized in advance to prevent urine loss. […] Solvent control: corn oil. The weight of urine was measured by the weight loss method and converted to volume (1 g≈1 mL). […] The peak of the diuretic effect was at 4 h after administration, and the duration of the diuretic effect was about 6-8 h. The results were shown as means±SEM, n=6. The urine osmotic pressure of the collected urine was measured by using a freezing point osmometer. […] The peak of action was at 4 h after administration, and returned to the level before administration at 6-8 h after administration. The results were shown as means±SEM, n=6. The urine samples were detected by using a urea kit for the level of urea in the urine. According to the previously measured urine volume, urine osmotic pressure and urea excretion per 2 h, the excretion of non-urea solutes per 2 h was calculated. […] The results were shown as means±SEM, n=6.

SD rats [2] = assay: single intragastric administration, diuretic effect in rats (metabolic cage); assay type: in vivo; conditions: 100 mg/kg, single (FIG. 5: intragastric)
Experimental: The urine collection system was siliconized in advance to prevent urine loss. […] The weight of urine was measured by the weight loss method and converted to volume (1 g≈1 mL). […] Urine volume began to rise at 2 h after administration, the peak of diuretic effect was at 4 h after administration, and the duration of diuretic effect was about 6-8 h. The results were shown as means±SEM, n=6. The urine osmotic pressure of the collected urine was measured by using a freezing point osmometer. […] The peak of action was at 4 h after administration, and recovered to the level before administration at 6-8 h after administration. The results were shown as means±SEM, n=6. Urine samples were detected by using a urea kit for the level of urea in the urine. According to the previously measured urine volume, urine osmotic pressure and urea excretion per 2 h, the excretion of non-urea solutes per 2 h was calculated. […] C57BL/6J mice, male, 6 in each group, weighing 20˜22 g, were taken. […] The urine collection system was siliconized in advance to prevent urine loss. […] Solvent control: CMC-Na. The weight of urine was measured by the weight loss method and converted to volume (1 g≈1 mL). […] The results were shown as means±SEM, n=6. The urine osmotic pressure of the collected urine was measured by using a freezing point osmometer. […] The results were shown as means±SEM, n=6. The urine samples were detected by using a urea kit for the level of urea in the urine. According to the previously measured urine volume, urine osmotic pressure and urea excretion per 2 h, the excretion of non-urea solutes per 2 h was calculated. […] The results were shown as means ±SEM, n=6.

SD rats [3] = assay: toxicity after 7 days intragastric administration in rats (organ indexes, serum, kidney histology)
Experimental: Normal SD rats, 8 weeks old, male, 8 rats in each group were taken. The animals were placed in a metabolic cage and acclimatized for three days prior to the experiment, on a standard diet with free access to water. […] The administration was continued for 7 days. On the 7th day, the rats were anesthetized with sodium pentobarbital, and the liver and kidney were taken, weighed, and the kidney weight index and liver weight index were calculated. […] The kidney tissue was immersed in a fixative solution (4% paraformaldehyde), embedded with a paraffin embedding machine, and then cut into 6 μm thick paraffin sections by a paraffin microtome. […] The sections were observed under an optical microscope. The inner medulla, outer medulla, and cortex of each kidney were selected for comparative observation by an optical microscope. […] Blood was collected by cardiac puncture, then centrifuged to obtain serum, which was used to measure serum indexes by instruments.

MDCK cells = assay: MDCK cytotoxicity test, CCK-8 kit; assay type: cell-based; conditions: 7.8-125 μM, cultured for 12 h
Experimental: In order to study the cytotoxicity of the compound of the present invention, an MDCK cytotoxicity test was completed by using a CCK-8 kit. […]. In this study, a CCK-8 kit was used to detect the cytotoxicity of compounds: MDCK cell suspension in logarithmic growth phase was inoculated into a 96-well culture plate (1×10^4 cells/well/100 μL), and 100 μL of DMEM culture solution containing 10% fetal bovine serum, 100 U/mL penicillin and 100 μg/mL streptomycin was administrated to each well, then cultured in a 37° C., 5% CO2 incubator. When the cells were 70%-80% confluent, serum starvation was performed for 12 h for synchronization. […]. At the same time, blank wells (medium, CCK-8) and control wells (cells, dissolving medium of the same concentration compound, medium, CCK-8) were set up, 3 replicate wells per group. Cell survival rate was calculated: cell survival rate (%)=[(ODexperimental well−ODblank well)/(ODcontrol well−ODblank well)]×100%, wherein OD refers to the absorbance value of each well.

human UT-B = molecular target: T1, human UT-B (Homo sapiens, UniProt Q13336); assay: erythrocyte lysis model, human erythrocytes; assay type: cell-based
T1 construct: endogenous in cells; host or cells: human erythrocytes
T1 sequence (Q13336 1-389): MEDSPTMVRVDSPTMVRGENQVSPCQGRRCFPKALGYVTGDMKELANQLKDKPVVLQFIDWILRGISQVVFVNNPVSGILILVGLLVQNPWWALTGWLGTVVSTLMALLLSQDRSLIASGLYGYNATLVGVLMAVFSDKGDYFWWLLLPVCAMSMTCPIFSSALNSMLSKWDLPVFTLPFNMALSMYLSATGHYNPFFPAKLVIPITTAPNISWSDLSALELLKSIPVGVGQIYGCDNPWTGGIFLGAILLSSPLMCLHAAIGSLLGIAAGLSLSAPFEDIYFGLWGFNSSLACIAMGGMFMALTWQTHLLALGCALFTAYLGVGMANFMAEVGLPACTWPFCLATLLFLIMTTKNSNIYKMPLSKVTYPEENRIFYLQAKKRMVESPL
Experimental: (§1) Erythrocyte lysis rate was calculated:
(§2) The formula for calculating the lysis rate percentage of erythrocytes, wherein Atest was the absorbance value of the test well, Aneg was the absorbance value of the negative control well, and Apos was the absorbance value of the positive control well. Erythrocyte lysis rate was calculated by measuring absorption at a wavelength of 710 nm.
(§3) The erythrocytes of three species of human, rats (SD rats) and mice (C57 mice) were taken, and urea transporter inhibitors were preliminarily screened from the above screening compound library by using the erythrocyte urea transporter inhibitor screening model.

UT-B [4] = molecular target: T2, UT-B (Rattus norvegicus, UniProt P97689); assay: erythrocyte lysis model, rat erythrocytes; assay type: cell-based, rats; conditions: concentration when the erythrocyte lysis rate of rats was 50%; read-out: IC50 rats
T2 construct: endogenous in cells; host or cells: erythrocytes of SD rats
T2 sequence (P97689 1-384): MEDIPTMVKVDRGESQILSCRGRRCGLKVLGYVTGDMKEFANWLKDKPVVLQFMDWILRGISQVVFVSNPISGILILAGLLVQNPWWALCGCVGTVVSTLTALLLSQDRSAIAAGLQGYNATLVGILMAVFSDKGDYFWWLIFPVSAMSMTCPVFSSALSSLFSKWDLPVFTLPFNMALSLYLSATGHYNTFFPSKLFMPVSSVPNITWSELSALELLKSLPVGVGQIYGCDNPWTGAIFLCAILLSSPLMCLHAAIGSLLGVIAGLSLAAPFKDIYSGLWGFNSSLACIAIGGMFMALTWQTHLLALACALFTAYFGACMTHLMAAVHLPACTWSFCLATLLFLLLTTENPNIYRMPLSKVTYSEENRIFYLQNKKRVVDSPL
Experimental: as §1, §2, §3

UT-B [5] = molecular target: T3, UT-B (Mus musculus, UniProt Q8VHL0); assay: erythrocyte lysis model, mouse erythrocytes; assay type: cell-based; conditions: concentration when the erythrocyte lysis rate of mice was 50%
T3 construct: endogenous in cells; host or cells: erythrocytes of C57 mice
T3 sequence (Q8VHL0 1-384): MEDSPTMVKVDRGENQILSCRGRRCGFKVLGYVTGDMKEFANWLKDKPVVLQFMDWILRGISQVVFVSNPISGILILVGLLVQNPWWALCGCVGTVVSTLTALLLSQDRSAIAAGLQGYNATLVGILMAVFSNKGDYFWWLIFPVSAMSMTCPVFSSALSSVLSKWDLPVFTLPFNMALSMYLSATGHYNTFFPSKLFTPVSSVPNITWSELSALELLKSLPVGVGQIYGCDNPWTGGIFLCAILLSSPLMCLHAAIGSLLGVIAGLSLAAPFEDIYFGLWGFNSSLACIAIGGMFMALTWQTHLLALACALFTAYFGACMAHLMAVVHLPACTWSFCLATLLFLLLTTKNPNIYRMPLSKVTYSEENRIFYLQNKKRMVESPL
Experimental: as §1, §2, §3

[6] = class of the IC50 to human UT-B, read-out: Activity level
[7] = concentration when the erythrocyte lysis rate of human was 50%, read-out: IC50 human

In the case of `CC(=O)Nc1ccc(NC(=O)c2ccc([N+](=O)[O-])o2)cc1` [Example 3, N-(4-acetamidophenyl)-5-nitrofuran-2-carboxamide], the “duration of the diuretic effect” value (SD rats [1]) is reported as 6 to 8 h, the “peak of action on urine osmotic pressure, time after administration” value (SD rats [1]) is reported as 4 h and the “peak of the diuretic effect, time after administration” value (SD rats [1]) is reported as 4 h. For the same compound, the “urine osmotic pressure returned to the level before administration, time after administration” value (SD rats [1]) was 6 to 8 h, the “duration of diuretic effect” value (SD rats [2]) was 6 to 8 h and the “peak of action on urine osmotic pressure, time after administration” value (SD rats [2]) was 4 h. The “peak of diuretic effect, time after administration” value (SD rats [2]) was 4 h, the “urine osmotic pressure recovered to the level before administration, time after administration” value (SD rats [2]) was 6 to 8 h and the “urine volume began to rise, time after administration” value (SD rats [2]) was 2 h. For the same compound, the serum urea level (SD rats [3]; 100 mg/kg intragastric every 8 h, vs control) was “no significant statistical difference”, the “inner medullary tubules, histology” value (SD rats [3]; HE sections) was “tubule swelling appeared in the inner medullary” and the “histological morphology of the kidney” value (SD rats [3]; HE sections, inner medulla, outer medulla, cortex) was “did not significantly affect”. For the same compound, the Serum chlorine (SD rats [3]; n = 8) was 101.7 ± 1.3 mM, the Serum cholesterol (SD rats [3]; n = 8) was 1.59 ± 0.06 mM and the Serum glucose (SD rats [3]; n = 8) was 9.4 ± 0.3 mM. The Serum high-density lipoprotein (SD rats [3]; n = 8) was 0.71 ± 0.03 mM, the Serum low-density lipoprotein (SD rats [3]; n = 8) was 0.34 ± 0.03 mM and the Serum potassium (SD rats [3]; n = 8) was 4.8 ± 0.2 mM. The Serum sodium (SD rats [3]; n = 8) was 147.3 ± 2.0 mM, the Serum triglyceride (SD rats [3]; n = 8) was 0.68 ± 0.07 mM and the “cytotoxic effect (cell survival rate)” value (MDCK cells) was “no significant cytotoxic effect”.

Work on `COc1cccc(NC(=O)c2ccc([N+](=O)[O-])o2)c1` [Example 30, N-(3-methoxyphenyl)-5-nitrofuran-2-carboxamide] yielded an IC50 (human UT-B; [6]) of less than 10 µM, an IC50 (human UT-B; [7]) of 2.27 µM and an IC50 (UT-B [4]) of 1.11 µM. For the same compound, the IC50 (UT-B [5]) was 9.65 µM.

Compound `O=C(NCCCN1CCOCC1)c1cccc(NC(=O)c2ccc([N+](=O)[O-])o2)c1` [Example 62, N-(3-((3-morpholinylpropyl)carbamoyl)phenyl)-5-nitrofuran-2-carboxamide] has an IC50 (human UT-B; [6]) of less than 10 µM, an IC50 (human UT-B; [7]) of 3.31 µM and an IC50 (UT-B [4]) of 1.41 µM. It also gave an IC50 (UT-B [5]) of 4.32 µM.

Compound `O=C(Nc1ccon1)c1ccc([N+](=O)[O-])o1` [Example 19, N-(isoxazol-3-yl)-5-nitrofuran-2-carboxamide] has an IC50 (human UT-B; [6]) of less than 10 µM, an IC50 (human UT-B; [7]) of 3.63 µM and an IC50 (UT-B [4]) of 30 µM. For the same compound, the IC50 (UT-B [5]) was 10.2 µM.

For `CN(C)CCNCC(=O)Nc1ccc(NC(=O)c2ccc([N+](=O)[O-])o2)cc1` [Example 74, N-(4-((2-dimethylamino)ethylamino)acetamidophenyl)-5-nitrofuran-2-carboxamide], the IC50 (human UT-B; [6]) was less than 10 µM, the IC50 (human UT-B; [7]) was 3.01 µM and the IC50 (UT-B [4]) was 1.24 µM. It also gave an IC50 (UT-B [5]) of 9.59 µM.

Reference: patent US12428389B2, “Diarylamide compound and application thereof” (Sunshine Lake Pharma Co., Ltd., priority 2019, dated 2025)
